One compound from publication PMC8201173, “Inhibition of Carbonic Anhydrase IX Promotes Apoptosis through Intracellular pH Level Alterations in Cervical Cancer Cells” (International Journal of Molecular Sciences, 2021) can be followed below.

One assay deals with HeLa cells. As to the kind of experiment: Intracellular pH (BCFL-AM fluorometric assay). The note with it: BCFL-AM indicator, 0–200 μM. It is filed as cell-based. Here is the method: Intracellular PH was measured according to the protocol of fluorometric Intracellular pH Assay Kit (Sigma-Aldrich, MAK-150, Germany). Fluorescent BCFL-AM indicator passed through cell membrane to measure intracellular pH fluctuations in the fluorometric intracellular pH kit. BCFL-AM was utilized to measure intracellular pH of the cells. The cells were planted in black plates and incubated for 24 h. The medium was replaced with BCFL-AM Reagent, which had been prepared in 100 µL of HBS solution (Hank’s buffer with 20 mM HEPES, 5 mM Probenecid); then, the cells were incubated at 37 °C with an atmosphere of 5% CO2 for 30 min (protected from light). The compound E at doses of 0–200 μM was administrated in HBS solution. The measurement was performed at wavelengths 490 nm (excitation) 535 nm (emission) in fluorimetry (Spectramax M5, BioTek, VT, USA.

The subject of a further assay is HT-29. As to the kind of experiment: WST-1 cytotoxicity assay, HT-29. The settings on record: Homo sapiens. The assay is classed as cell-based. As to the method:
We used cancer and normal cell lines purchased from ATCC (American Type Culture Collection) and ECACC (European Collection of Authenticated Cell Cultures) and stored in liquid nitrogen.
The cells were planted in 96 well plates (10^4 cells per well). […] WST-1 reactive of 10 µL was added in all wells. Following 4 h incubation, the measurements were carried out in a plate reader (Spectramax M5, BioTek, VT, USA) at wavelengths of 450 and 630 nm.

The structures appear in SMILES notation.

By IC50 is commonly meant the point on the concentration scale where inhibition reaches its midpoint. In the case of `NS(=O)(=O)c1ccc(CCNCc2cc(Br)ccc2O)cc1` [Compound E, 4-(2-((5-bromo-2-hydroxybenzyl)amino)ethyl) benzenesulphonamide], the “Intracellular pHi level” value with HeLa cells is given as “decreased intracellular pHi level after the dose of 25 µM in a dose-dependent manner”. Also, the IC50 with HT-29 (HT-29, 24 h) was 89.3 ± 12.2 µM; with HT-29 (HT-29, 48 h), 42.9 ± 16.3 µM; with HT-29 (HT-29, 72 h), 83.3 ± 17.4 µM.
